This is an account of results in patent publication EP4257130A1, “INOBRODIB FOR USE IN THE TREATMENT OF PULMONARY ARTERIAL HYPERTENSION” (Justus-Liebig-Universität Gießen, priority 2022, dated 2023).

One test concerns PAH-PCLS. Put plainly: Vascular remodelling (medial wall thickness) in precision-cut lung slices ex vivo. It counts as cell-based, Mensch. To be noted: human PAH-PCLS, 200 µM on days 2 and 6, fixed day 10, vessels 20-150 µm, vs. DMSO. From the text: Lungengewebeproben wurden von Patienten mit IPAH entnommen. Aus den mit 3% niedrigschmelzender Agarose gefüllten Lungenproben von Patienten mit IPAH wurden mit einem Vibratom (Leica Biosystems) Gewebeschnitte (400 µm dick) angefertigt. Die Lungengewebeschnitte wurden in DMEM-GlutaMAX-Medium mit 10 % fetalem Kälberserum, 1 % Penicillin/Streptomycin und 0,1 % Amphotericin B (Thermo Fisher Scientific) kultiviert, und die Behandlung wurde am zweiten Tag eingeleitet. Die Substanz CCS1477 wurde in einer Konzentration von 200 µM an den Tagen 2 und 6 verabreicht. Am 10. Tag wurde das Gewebe in 4% Paraformaldehyd (Roti-Histofix; Carl Roth) fixiert und in Paraffin eingebettet. Die mediale Wanddicke wurde in allen Gefäßen mit einer Größe von 20-150 µm in den Lungenschnitten gemessen.
Das therapeutische Potenzial der EP300/CREBBP-Hemmung durch die Substanz CCS1477 wurde untersucht. Dazu wurde die Wirksamkeit auf PAH-FBs und PAH-SMCs geprüft, die aus den Lungenarterien von menschlichen PAH-Patienten und aus den Lungenarterien von Ratten mit MCT-PAH (Rattenmodell mit Monocrotalin) isoliert wurden. […] Die Wirkung der EP300-Hemmung auf das vaskuläre Remodelling wurde durch Quantifizierung der prozentualen medialen Wanddicke in den mit der Substanz CCS1477 inkubierten PCLS im Vergleich zu den mit DMSO inkubierten Kontrollen bewertet. […]

For test [1], the system named is PAH-SMCs. Description: Apoptosis in PAH smooth muscle cells. Type of test: cell-based, Mensch. To be noted: vs. DMSO. An excerpt: (§1) Diese Untersuchungen führten zu der Erkenntnis, dass die epigenetische Regulation der entwicklungsbedingten TF-Expression in der Lunge durch Modulation der EP300/CREBBP-Funktion rückgängig gemacht werden kann. Die Wirkung des niedermolekularen Inhibitors (Substanz, Wirkstoff) CCS1477 auf die Proliferation von Gefäßzellen, die Apoptose sowie die Gen- und Proteinexpression wurde mit Hilfe geeigneter Assays nach der Transfektion untersucht. Nachdem Zellen zur Subkonfluenz gewachsen sind, wurde ihnen mit steigenden Konzentrationen der selektive EP300-Inhibitor CCS1477 (Chemietek, Katalognummer: CT-CCS1477) hinzugefügt. Die aus PAH-Patienten isolierten FBs wurden also mit dem isoformselektiven HAT-Inhibitor CCS1477 behandelt. Gleichzeitig wurde den Zellen das Lösungsmittel DMSO (Sigma) mit entsprechenden Konzentrationen hinzugefügt.
(§2) PAH-FBs wurden mit verschiedenen Konzentrationen der Substanz CCS1477 oder dem Lösungsmittel DMSO inkubiert, um die Zellproliferation und die Induktion von Apoptose 24 Stunden danach zu untersuchen. […]
(§3) Das therapeutische Potenzial der EP300/CREBBP-Hemmung durch die Substanz CCS1477 wurde untersucht. […] Die Wirkung der EP300-Hemmung auf das vaskuläre Remodelling wurde durch Quantifizierung der prozentualen medialen Wanddicke in den mit der Substanz CCS1477 inkubierten PCLS im Vergleich zu den mit DMSO inkubierten Kontrollen bewertet. […]

The subject of a further test is MCT-PAH. Description: MCT-PAH rat model: right heart catheterisation and histology. It counts as in vivo, SD-Ratten. The conditions noted are these: MCT-PAH rats, three times weekly for two weeks. From the text: (§4) Um das therapeutische Potenzial der EP300/CREBBP-Hemmung in vivo weiter zu erforschen, haben die Erfinder Versuchstiere in drei verschiedenen Nagetiermodellen mit etablierter PAH mit der Substanz CCS1477 behandelt, wobei CCS1477 durch orale Verabreichung über zwei Wochen lang dreimal wöchentlich verabreicht wurde. Es wurden folgende drei verschiedenen Nagetiermodelle für eine PAH (FHR-PAH, MCT-PAH und SuHx-PAH) getestet: • Fawn-hooded hypertensive Ratten (FHR): Das ist ein genetischer Rattenstamm, bei dem PAH im Alter spontan auftritt und der ähnliche PAH-Anomalien aufweist, wie sie bei IPAH bei Menschen nach 40 Wochen auftreten. • Durch Monocrotalin (MCT) induziertes PAH-Rattenmodell. • Ein SUGEN5416/chronische Hypoxie (SuHx)-Rattenmodell für PAH, bei dem die Ratten eine einmalige Injektion von SUGEN5416 erhielten und anschließend einer chronischen Hypoxie (10% O2) ausgesetzt wurden (SuHx-PAH).
(§5) Für die MCT-PAH wurden männlichen und weiblichen SD-Ratten (Sprague-Dawley-Ratten) subkutan 60 mg/kg MCT (Sigma, Katalog: C2401) injiziert, um PAH zu induzieren. Bei der SuHx-PAH erhielten SD-Ratten eine einmalige subkutane Injektion von SUGEN5416 (20 mg/kg) und wurden drei Wochen lang einer normobaren Hypoxie ausgesetzt, bevor sie für zwei Wochen an die Raumluft zurückkehrten. Zwei Wochen nach der MCT-Injektion bzw. drei Wochen nach der SUGEN5416-Injektion (sobald PAH festgestellt wurde) wurden die Ratten nach dem Zufallsprinzip in vier Gruppen eingeteilt und erhielten zwei Wochen lang dreimal wöchentlich entweder Vehikel (Verabreichung von 1 % Methylcellulose in destilliertem Wasser oder intratracheale Vernebelung von 4 % DMSO in PBS als Negativkontrolle), CCS1477 (Verabreichung von 10 mg/kg in 1 % Methylcellulose + destilliertem Wasser). Einjährige männliche und weibliche FHR-Ratten mit etablierter PAH wurden in dieselben vier Gruppen wie beim MCT-Modell eingeteilt und denselben Behandlungsmethoden unterzogen. Nach zweiwöchiger Behandlung wurde eine Rechtsherzkatheteruntersuchung bei geschlossenem Thorax durchgeführt, um folgende hämodynamischen Daten zu erfassen: Systolischer Rechtsventrikulärer Druck (RVSP), mittlerer PA-Druck (mPAP), Herzzeitvolumen (CO) und Schlagvolumen (SV). Der Gesamtwiderstand der Lunge (TPR) wurde durch Division von mPAP durch CO ermittelt. Nach der hämodynamischen Messung wurden den Ratten Gewebeproben entnommen. Die Experimente wurden gemäß den Richtlinien des Canadian Council on Animal Care durchgeführt. Alle Protokolle wurden von der institutionellen Ethikkommission für Tiere (Tierschutzausschuss der Universität Laval) geprüft und genehmigt (Protokollnummer 2019-018-2). Alle Experimente folgten den Richtlinien für die präklinische Forschung bei PAH.
(§6) • Abbildung 1: Umkehrung von PAH-Phänotypen durch therapeutische Modulation der dysregulierten HATs EP300 und CREBBP ex vivo • A: PAH-FBs wurden mit siRNAs (siP300) behandelt, die auf EP300 abzielen (n=3), um die genspezifische funktionelle Rolle von EP300 bei der Hyperproliferation ex vivo 48 Stunden nach der Transfektion zu untersuchen. Die Zellproliferation wurde durch BrdU-Inkorporation bestimmt. Die Werte wurden auf scrambled siRNA (siScr) normalisiert und sind als Mittelwert ± SD angegeben (n=3, ungepaarter t-Test; *P < 0,05 vs. scrambled siRNA). • B: PAH-FBs wurden mit verschiedenen Konzentrationen des EP300/CREBBP-Inhibitors CCS1477 oder dem Lösungsmittel DMSO inkubiert, um die Wirkung der selektiven EP300/CREBBP-Inhibition auf die Zellproliferation (bewertet durch BrdU-Inkorporation) zu untersuchen. Als Vergleichssubstanz wurde ein weiterer EP300/CREBBP-Inhibitor (SGC-CBP30) parallel dazu unter denselben Bedingungen inkubiert. […]

For test [2], the system named is PAH-FBs. Description: Apoptosis by Cell Death Detection ELISAPLUS in PAH fibroblasts. It counts as cell-based, Mensch. To be noted: PAH-FBs isolated ex vivo, various concentrations, 24 h, vs. DMSO.
Text: as §1, with “Gleichzeitig wurde den Zellen das Lösungsmittel DMSO (Sigma) mit entsprechenden Konzentrationen hinzugefügt.” left out
(§7) • Abbildung 1: Umkehrung von PAH-Phänotypen durch therapeutische Modulation der dysregulierten HATs EP300 und CREBBP ex vivo • A: PAH-FBs wurden mit siRNAs (siP300) behandelt, die auf EP300 abzielen (n=3), um die genspezifische funktionelle Rolle von EP300 bei der Hyperproliferation ex vivo 48 Stunden nach der Transfektion zu untersuchen. […] Skalenbalken: 50 µm. • E: Die Wirkung der P300-Inhibition (200 µM) auf den Gefäßumbau wurde durch Quantifizierung der prozentualen medialen Wanddicke in den mit dem EP300/CREBBP-Inhibitor CCS1477 inkubierten PCLS im Vergleich zu den mit DMSO inkubierten Kontrollen bewertet. […]

Test [3] concerns PAH-SMCs. Description: Cell proliferation (hyperproliferative phenotype) in PAH smooth muscle cells. It counts as cell-based, Mensch. The conditions noted are these: vs. DMSO.
Text: as §1, §2, §3

The test system of another test is SuHx-PAH. Put plainly: SuHx-PAH rat model (SUGEN5416/chronic hypoxia): right heart catheterisation and histology. Type of test: in vivo, SD-Ratten. To be noted: three times weekly for two weeks.
Text: as §4, §5, §6

In another test the test system is FHR-PAH. Description: FHR-PAH rat model: right heart catheterisation and histology. It counts as in vivo, Fawn-hooded hypertensive Ratten. The conditions noted are these: FHR-PAH rats, three times weekly for two weeks.
Text: as §4, §5, §6

The test system of test [4] is PAH-FBs. Description: Cell proliferation by BrdU incorporation in PAH fibroblasts. To be noted: PAH-FBs isolated ex vivo, various concentrations, 24 h, vs. DMSO. It counts as cell-based, Mensch.
Text: as §1, with “Gleichzeitig wurde den Zellen das Lösungsmittel DMSO (Sigma) mit entsprechenden Konzentrationen hinzugefügt.” left out
as §7
For orientation: Dividing cells build labelled thymidine or BrdU into new DNA.

The mark [5] stands for this setting: 10 mg/kg in 1 % methylcellulose, oral, vs. vehicle.
Setting [6] is: 10 mg/kg oral, TPR = mPAP divided by CO.
Where [7] appears, read: SUGEN5416/chronic hypoxia PAH rats, 10 mg/kg oral, vs. vehicle.
Where [8] appears, read: SuHx-PAH rats, 10 mg/kg in 1 % methylcellulose, oral, vs. vehicle.

As to `CO[C@H]1CC[C@H](n2c([C@@H]3CCCC(=O)N3c3ccc(F)c(F)c3)nc3cc(-c4c(C)noc4C)ccc32)CC1` [CCS1477, (S)-1-(3,4-difluorophenyl)-6-(5-(3,5-dimethylisoxazol-4-yl)-1-((1r,4S)-4-methoxycyclohexyl)-1H-benzo[d]imidazol-2-yl)piperidin-2-on], the “mediale Wanddicke der umgestalteten PAs” value in the test with PAH-PCLS is reported as “signifikante Verringerung der medialen Wanddicke”. Further, the Apoptoserate entry with PAH-SMCs [1] was “schwächte den hyperproliferativen Phänotyp und die Apoptoserate von PAH-FBs und PAH-SMCs deutlich ab”. The RVSP entry with MCT-PAH (setting [5]), with SuHx-PAH (setting [8]) and in the test on FHR-PAH (setting [5]) was “signifikanten Senkung” in each case. The mPAP entry in the test on MCT-PAH (setting [5]), with SuHx-PAH (setting [8]) and with FHR-PAH (setting [5]) was “signifikanten Senkung” throughout. Further, the “mediale Wanddicke der distalen PAs” value with MCT-PAH (10 mg/kg oral) is “signifikant verringert”; with SuHx-PAH (SuHx-PAH rats, 10 mg/kg oral) it was “signifikant verringert”; in the test on FHR-PAH (10 mg/kg oral), “signifikant verringert”. The CO entry in the test on MCT-PAH (10 mg/kg oral, vs. vehicle) is “verbesserten sich nach der Behandlung mit der Substanz CCS1477 bei FHR-PAH und MCT-PAH signifikant”; with SuHx-PAH (setting [7]), “verbesserte CO und SV auch bei SUGEN5416/chronischer Hypoxie-PAH signifikant”; in the test with FHR-PAH (10 mg/kg oral, vs. vehicle), “verbesserten sich nach der Behandlung mit der Substanz CCS1477 bei FHR-PAH und MCT-PAH signifikant”. For the same molecule, the SV entry with MCT-PAH (10 mg/kg oral, vs. vehicle) is reported as “verbesserten sich nach der Behandlung mit der Substanz CCS1477 bei FHR-PAH und MCT-PAH signifikant”; with SuHx-PAH (setting [7]), “verbesserte CO und SV auch bei SUGEN5416/chronischer Hypoxie-PAH signifikant”; in the test on FHR-PAH (10 mg/kg oral, vs. vehicle), “verbesserten sich nach der Behandlung mit der Substanz CCS1477 bei FHR-PAH und MCT-PAH signifikant”. In addition, the TPR entry is given as “signifikanten Senkung” with MCT-PAH (setting [6]); “signifikanten Senkung” in the test with SuHx-PAH (SuHx-PAH rats, 10 mg/kg oral, TPR = mPAP divided by CO); “signifikanten Senkung” in the test with FHR-PAH (setting [6]). Further, in the test on PAH-FBs [2], the “Apoptoserate (Induktion von Apoptose, Cell Death Detection ELISAPLUS)” value is listed as “schwächte den hyperproliferativen Phänotyp und die Apoptoserate von PAH-FBs und PAH-SMCs deutlich ab”. The “hyperproliferativer Phänotyp” value in the test on PAH-SMCs [3] is recorded as “schwächte den hyperproliferativen Phänotyp und die Apoptoserate von PAH-FBs und PAH-SMCs deutlich ab”. The “molekulare Marker für Myokardhypertrophie” value in the test with FHR-PAH (10 mg/kg oral) is reported as “signifikant abgeschwächt”. In addition, the “hyperproliferativer Phänotyp (Zellproliferation, Einbau von BrdU)” value in the test on PAH-FBs [4] is “schwächte den hyperproliferativen Phänotyp und die Apoptoserate von PAH-FBs und PAH-SMCs deutlich ab”.
